Test results: article PMC12680861, “Comparative analysis of LJ-4378 and tirzepatide in mouse models of obesity and weight regain” (Archives of Pharmacal Research, 2025)

Assays:
Format in all cases: in vivo, C57BL/6 J male mice
[1] = tested on: HFD-fed mice; assay: Adipose tissue (gWAT) and systemic inflammation in HFD-fed mice; conditions: for serum TNF-α levels: ELISA; for macrophage accumulation in gWAT (F4/80 protein, crown-like structures): compared with HFD controls
Method: (§1) To evaluate the anti-obesity effect in vivo, mice fed either NCD or HFD for 10 weeks were subsequently treated for up to 4 weeks. To control for injection route-related variables, all mice received both intraperitoneal (I.P.) and subcutaneous (S.C.) injections. The administration were as follows: LJ-4378 treated mice received LJ-4378, which was synthesized in our laboratory at > 95% purity (1 mg/kg/day, I.P.) (Hou et al. [2010]; Kim et al. [2022]) along with the vehicle for TZP (40 mM Tris–HCl, pH 8, S.C.); TZP treated mice received TZP (Samms et al. [2021]; Kim et al. [2022]) (LY3298176, MedChemExpress, Monmouth Junction, NJ, USA) (10 nmol/kg/day, S.C.) along with the vehicle for LJ-4378 (0.2% DMSO, I.P.); vehicle control mice received both vehicles (0.2% DMSO, I.P. and 40 mM Tris–HCl, pH 8, S.C.)
The serum TNF-α level was measured using TNF-alpha ELISA MTA00B (R&D system) in accordance with the manufacturer’s protocol.
(§2) For protein extraction, we utilized PRO-RERP Protein Extraction Solution (17081, iNtRON Biotechnology, Gyeonggi-do, Korea), supplemented with […] Protease Inhibitor (S8820, Sigma, St. Louis, MO, USA) and PhosSTOP phosphatase inhibitor (#4906837001, Roche, Basel, Switzerland). Protein concentrations were determined using the Pierce BCA protein assay Kit (#23227, Thermo Fisher, Waltham, Massachusetts, USA) by measuring absorbance at 562 nm with a MultiSkan GO spectrophotometer (Thermo Fisher). The quantified proteins were loaded and separated in 12% SDS-PAGE gels and transferred to polyvinylidene difluoride (PVDF) membranes (Bio-Rad, Hercules, CA, USA). Membranes were blocked in 5% bovine serum albumin or skim milk in Tris-buffered saline with 0.1% Tween 20 (TBST) for 1 h, followed by overnight incubation with primary antibodies. The next day, membranes were washed 3 times with TBST and incubated for 1 h with horseradish peroxidase (HRP)-conjugated secondary antibody: Goat anti-rabbit (1:3000, #31460, Thermo Fisher) and Goat anti-Mouse IgG (1:3000, 115–035-174, Jackson ImmunoResearch). After secondary antibody incubation, membranes were washed 3 times with TBST and detected with the Fusion Solo chemiluminescence imaging system (Vilber Lourmat, France). EvolutionCapt (version 17.03) software and the ImageJ (National Institutes of Health, Bethesda, MD, USA) program were used for analysis and to quantify the protein level.
(§3) RT-qPCR was conducted according to the method (Cho et al. [2022]). The tissue samples were lysed in TRIzol (#15596018, Thermo Fisher), and the total RNA was extracted. The extracted RNA was synthesized into cDNA using the cDNA Reverse Transcription Kit (Applied Biosystems, Waltham, MA, USA). mRNA levels were quantified using iQ SYBR Green Supermix on the CFX Connect Real-time system (Bio-rad). Relative expression levels of each gene were calculated using the […] method, with the reference housekeeping gene as follows: Peptidylprolyl isomerase A (Ppia) for adipose tissue and glyceraldehyde-3-phosphate dehydrogenase (Gapdh) for hypothalamus.
(§4) Adipose tissues were fixed in 10% formalin (HT50128, Sigma) for 2 days and made into paraffin slides. The deparaffinized sections were stained with ClearView Staining Hematoxylin (MA010081, BBC Biochemical, Mount Vernon, WA, USA) and Eosin Y Alcoholic (#3610, BBC Biochemical) solution. The crown-like structure formation of gonadal white adipose tissue (gWAT) and triglyceride (TG) accumulation in the liver are observed using hematoxylin and eosin staining on paraffin slides. The images were captured using Nikon Elements (NIS BR Analysis ver 5.10.00).

[2] = tested on: HFD-fed mice; assay: Indirect calorimetry and food intake in HFD-fed mice; conditions: for energy expenditure adjusted for body weight and lean body mass (ANCOVA) / food intake (indirect calorimetry): HFD-fed mice; for VO2, VCO2 and energy expenditure: relative to HFD controls, last 2 days of 14-day treatment
Method: as §1
(§5) To assess post-treatment weight rebound (WR), the mice previously treated with vehicle, LJ-4378, or TZP were maintained on HFD for an additional 4 weeks following treatment cessation. Treatment protocols for the WR groups were identical to those of the HFD groups. In total, nine experimental groups were established: NCD + CTL, NCD + LJ, NCD + TZP; HFD + CTL, HFD + LJ, HFD + TZP; and WR + CTL, WR + LJ, WR + TZP. The volume of oxygen consumed (VO2), carbon dioxide produced (VCO2), respiratory exchange ratio (RER), energy expenditure, activity, and food intake were measured with PhenoMaster (TSE Systems, Bad Homburg, Germany). Indirect calorimetry was performed under controlled conditions, with a stable ambient temperature of 24 °C and a 12 h light/12-h dark cycle. Mice fed HFD were administered vehicle, LJ-4378, or TZP for 14 days, and the last 2 days of treatment were conducted during indirect calorimetry analysis. The WR model was examined by indirect calorimetry after 2 and 4 weeks of the weight regaining phase.

[3] = tested on: HFD-fed mice; assay: Hepatic PKA signaling (immunoblot, liver); conditions: P-HSL/HSL, P-CREB/CREB
Method: To evaluate the anti-obesity effect in vivo, mice fed either NCD or HFD for 10 weeks were subsequently treated for up to 4 weeks. To control for injection route-related variables, all mice received both intraperitoneal (I.P.) and subcutaneous (S.C.) injections. […]
For protein extraction, we utilized PRO-RERP Protein Extraction Solution (17081, iNtRON Biotechnology, Gyeonggi-do, Korea), supplemented with […] […] Protein concentrations were determined using the Pierce BCA protein assay Kit (#23227, Thermo Fisher, Waltham, Massachusetts, USA) by measuring absorbance at 562 nm with a MultiSkan GO spectrophotometer (Thermo Fisher). The quantified proteins were loaded and separated in 12% SDS-PAGE gels and transferred to polyvinylidene difluoride (PVDF) membranes (Bio-Rad, Hercules, CA, USA). […] After secondary antibody incubation, membranes were washed 3 times with TBST and detected with the Fusion Solo chemiluminescence imaging system (Vilber Lourmat, France). EvolutionCapt (version 17.03) software and the ImageJ (National Institutes of Health, Bethesda, MD, USA) program were used for analysis and to quantify the protein level.
Western blot analysis of P-HSL/HSL and P-CREB/CREB in liver. […] Statistical significance was determined using two-way ANOVA followed by Bonferroni post hoc test.

[4] = tested on: WR mice; assay: WR model: glucose metabolism, gWAT inflammation, hepatic steatosis at 4 weeks post-treatment; conditions: for macrophage marker F4/80 and CLS formation in gWAT: 4 weeks of the weight regaining phase
Description: as §5, §2, §3
The glucose tolerance test was conducted on mice fasted for 12 h with ad libitum access to water. Mice were intraperitoneally injected with 20% D-( +)-glucose (2 g/kg body weight, #49139, Sigma), and blood glucose levels were measured at each time point using a Gluco Doctor Top meter and strip (Allmedicus, South Korea).
as §4, with “5.10.00). […]” for “5.10.00).”

| Compound | serum TNF-α levels ([1]; HFD-fed mice) | Adgre1 and Tnf-α expression in gWAT ([1]; HFD-fed mice, RT-qPCR) | M2-like macrophage markers (Arg1, Clec10a, Chil3, Il-10) in gWAT ([1]; HFD-fed mice, RT-qPCR) | macrophage accumulation in gWAT (F4/80 protein, crown-like structures) [1] | energy expenditure adjusted for body weight and lean body mass (ANCOVA) [2] | food intake (indirect calorimetry) [2] | VO2, VCO2 and energy expenditure [2] | phosphorylation of downstream targets of PKA in the liver [3] | macrophage marker F4/80 and CLS formation in gWAT [4] | fasting glucose levels, versus TZP-treated group ([4]; 4 weeks post-treatment, WR) | glucose clearance in glucose tolerance test, versus TZP-treated group ([4]; 4 weeks post-treatment, WR) | hepatic triglyceride (TG) deposition, versus TZP ([4]; 4 weeks post-treatment, WR) | Tnf-α and Arg1 mRNA levels in gWAT ([4]; after 4 weeks of WR) |
| --- | --- | --- | --- | --- | --- | --- | --- | --- | --- | --- | --- | --- | --- |
| CCCCC#Cc1nc(N)c2ncn([C@@H]3SC[C@@H](O)[C@H]3O)c2n1 [LJ-4378] | reduced | remarkably suppressed | selectively upregulated | significantly reduced | consistently increased energy expenditure | did not affect the feeding behavior | significantly increased | Neither LJ-4378 nor TZP altered the phosphorylation | maintained lower levels of macrophage accumulation | lower | enhanced glucose clearance | significantly lower | reduced Tnf-α and increased Arg1 mRNA levels were maintained |
| Tirzepatide [TZP, reference compound] | reduced | remarkably suppressed |  | significantly reduced | not significant when LBM was used as the covariate | reduced food consumption | significantly increased | Neither LJ-4378 nor TZP altered the phosphorylation | re-elevated |  |  |  |  |
